Reference: paper PMC12557437, “Research towards selective inhibition of the CLK3 kinase” (Beilstein Journal of Organic Chemistry, 2025)
Where “and” joins values, the source holds several entries; their conditions need not be identical. Equal values may be shown once.

How the values were obtained:
CLK1 = conditions: human protein kinase; ref 17 (SM08502), 19 (T3), 20-21 (CX-4945), 24 (DB18); cited from earlier work
CLK2 = conditions: human protein kinase; ref 17 (SM08502), 19 (T3), 20-21 (CX-4945), 24 (DB18); cited from earlier work
CLK3 = conditions: human protein kinase; ref 17 (SM08502), 19 (T3), 20-21 (CX-4945), 24 (DB18); cited from earlier work
CLK4 = conditions: human protein kinase; ref 17 (SM08502), 20-21 (CX-4945), 24 (DB18); cited from earlier work
DYRK1A = conditions: human protein kinase; ref 17 (SM08502), 19 (T3), 20-21 (CX-4945), 24 (DB18); cited from earlier work
Hs_CDK5/p25 = Hs_CDK5/p25 (Homo sapiens, UniProt Q00535); experiment: primary screening, short panel of mammalian kinases; type: biochemical; conditions: ATP 10 µM, means, n = 2, read-out: Residual kinase activity Hs_CDK5/p25; for remaining activity at 1 µM: compound 1 μM; for remaining activity at 10 µM: compound 10 μM
Source text: (§1) Our molecules have been submitted first to a primary screening against a panel of eight disease-related kinases: five members of the CMGC (for CDK, MAPK, GSK3, and CLK) group (CDK5/p25, CDK9/CyclinT, GSK3β, CLK1 and DYRK1A), one CAMK (calmodulin/calcium regulated kinase PIM1), one CK1 (the casein kinase CK1ε), and haspin as a […] kinase.
(§2) Figure 4 Primary evaluation of the inhibition of the new quinazolines against a short panel of mammalian kinases. Residual kinase activities are expressed in % of maximal activity, i.e., measured in the absence of inhibitor but with an equivalent dose of DMSO (solvent of the tested compounds). ATP concentration used in the kinase assays was 10 µM (values are means, n = 2). Kinases are from human origin (Homo sapiens) except CLK1 (from Mus musculus) and DYRK1A (from Rattus norvegicus). […]

Hs_CDK9/CyclinT = Hs_CDK9/CyclinT (Homo sapiens, UniProt P50750); experiment: as above; type: biochemical; conditions: ATP 10 µM, means, n = 2, read-out: Residual kinase activity Hs_CDK9/CyclinT; for remaining activity at 1 µM: compound 1 μM; for remaining activity at 10 µM: compound 10 μM
Source text: as §1, §2

Hs_CK1ε = Hs_CK1ε (Homo sapiens, UniProt P49674); experiment: as above; type: biochemical; conditions: ATP 10 µM, means, n = 2, read-out: Residual kinase activity Hs_CK1ε; for remaining activity at 1 µM: compound 1 μM; for remaining activity at 10 µM: compound 10 μM
Source text: as §1, §2

Hs_GSK3β = Hs_GSK3β (Homo sapiens, UniProt P49841); experiment: as above; type: biochemical; conditions: ATP 10 µM, means, n = 2, read-out: Residual kinase activity Hs_GSK3β; for remaining activity at 1 µM: compound 1 μM; for remaining activity at 10 µM: compound 10 μM
Source text: as §1, §2

Hs_HASPIN = target: T1, Hs_HASPIN (Homo sapiens, UniProt Q8TF76); experiment: as above; type: biochemical; conditions: ATP 10 µM, means, n = 2, read-out: Residual kinase activity Hs_HASPIN; for remaining activity at 1 µM: compound 1 μM; for remaining activity at 10 µM: compound 10 μM
T1 sequence (Q8TF76 1-798): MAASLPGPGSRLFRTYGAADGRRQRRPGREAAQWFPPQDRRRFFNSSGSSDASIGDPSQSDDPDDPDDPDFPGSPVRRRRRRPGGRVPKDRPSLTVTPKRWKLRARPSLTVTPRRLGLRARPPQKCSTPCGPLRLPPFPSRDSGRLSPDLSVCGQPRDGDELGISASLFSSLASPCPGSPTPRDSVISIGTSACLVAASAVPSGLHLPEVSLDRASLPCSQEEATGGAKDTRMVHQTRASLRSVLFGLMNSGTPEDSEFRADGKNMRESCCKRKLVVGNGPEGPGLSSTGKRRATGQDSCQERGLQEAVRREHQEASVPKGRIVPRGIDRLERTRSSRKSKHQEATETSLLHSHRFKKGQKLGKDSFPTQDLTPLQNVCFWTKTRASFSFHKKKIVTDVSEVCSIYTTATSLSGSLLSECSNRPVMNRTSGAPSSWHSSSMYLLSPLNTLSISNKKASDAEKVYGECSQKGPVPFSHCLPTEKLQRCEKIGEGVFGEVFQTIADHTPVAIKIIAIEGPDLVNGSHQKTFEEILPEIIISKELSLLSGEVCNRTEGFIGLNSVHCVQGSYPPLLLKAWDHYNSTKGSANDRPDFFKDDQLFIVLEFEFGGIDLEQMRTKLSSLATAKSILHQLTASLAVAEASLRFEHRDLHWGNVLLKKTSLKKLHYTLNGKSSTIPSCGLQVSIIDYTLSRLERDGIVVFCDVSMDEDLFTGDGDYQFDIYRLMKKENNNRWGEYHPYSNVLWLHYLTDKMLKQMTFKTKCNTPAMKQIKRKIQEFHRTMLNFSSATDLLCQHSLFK
Source text: as §1, §2

Hs_PIM1 = Hs_PIM1 (Homo sapiens, UniProt P11309); experiment: as above; type: biochemical; conditions: ATP 10 µM, means, n = 2, read-out: Residual kinase activity Hs_PIM1; for remaining activity at 1 µM: compound 1 μM; for remaining activity at 10 µM: compound 10 μM
Source text: as §1, §2

Mm_CLK1 [1] = target: T2, Mm_CLK1 (Mus musculus, UniProt P22518); experiment: as above; type: biochemical; conditions: for remaining activity at 1 µM: compound 1 μM; for remaining activity at 1 µM / remaining activity at 10 µM: ATP 10 µM, means, n = 2, read-out: Residual kinase activity Mm_CLK1; for remaining activity at 10 µM: compound 10 μM; for activity against CLK1 in primary screening: 1 and 10 µM
Source text: as §1, §2

Rn_DYRK1A = Rn_DYRK1A (Rattus norvegicus, UniProt Q63470); experiment: as above; type: biochemical; conditions: ATP 10 µM, means, n = 2, read-out: Residual kinase activity Rn_DYRK1A; for remaining activity at 1 µM: compound 1 μM; for remaining activity at 10 µM: compound 10 μM
Source text: as §1, §2

Mm_CLK1 [2] = target: T2, Mm_CLK1; experiment: radiometric γ33P-ATP kinase assay (Eurofins); type: biochemical; conditions: for IC50: 15 µM ATP, dose-response, points in duplicate; for Mm_CLK3/Mm_CLK1: ratio of IC50 values
Protocol: (§3) The results are reported in Table 2 and in Supporting Information File 1.
(§4) 2- Kinase inhibition studies
(§5) Kinase enzymatic activities were assayed using both luminescent ADP detection assay
(§6) (ADP-GloTM assay kit, Promega, Madison, WI) or radiometric kinase assay. These
(§7) assays were performed using the protocols described in our previous publication. […]
(§8) 1.Brahmaiah, D.; Kanaka Durga Bhavani, A.; Aparna, P.; Sampath Kumar, N.; Solhi,
(§9) H.; Le Guevel, R.; Baratte, B.; Ruchaud, S.; Bach, S.; Singh Jadav, S.; Raji Reddy, C.;
(§10) Roisnel, T.; Mosset, P.; Levoin, N.; Grée, R. Bioorg.
(§11) R.; Baratte, B.; Robert, T.; Ruchaud, S.; Bach, S.; Jadav, S. S.; Reddy, C. […]

Mm_CLK2 = Mm_CLK2 (Mus musculus, UniProt O35491); experiment: radiometric γ33P-ATP kinase assay (Eurofins); type: biochemical; conditions: for IC50: 15 µM ATP, dose-response, points in duplicate; for Mm_CLK3/Mm_CLK2: ratio of IC50 values
Protocol: as §3, §4, §5, §6, §7, §8, §9, §10, §11

Mm_CLK4 = Mm_CLK4 (Mus musculus, UniProt O35493); experiment: radiometric γ33P-ATP kinase assay (Eurofins); type: biochemical; conditions: for IC50: 15 µM ATP, dose-response, points in duplicate; for Mm_CLK3/Mm_CLK4: ratio of IC50 values
Protocol: as §3, §4, §5, §6, §7, §8, §9, §10, §11

Mm_CLK3 = Mm_CLK3 (Mus musculus, UniProt O35492); experiment: radiometric γ33P-ATP kinase assay (Eurofins); type: biochemical; conditions: 15 µM ATP; dose-response, points in duplicate
Protocol: as §3, §4, §5, §6, §7, §8, §9, §10
R.; Baratte, B.; Robert, T.; Ruchaud, S.; Bach, S.; Jadav, S. S.; Reddy, C. R.; Mosset,
P.; Gouault, N.; Levoin, N.; Grée, R. Molecules 2022, 27, 6149. […]

T2 sequence (P22518 whole entry): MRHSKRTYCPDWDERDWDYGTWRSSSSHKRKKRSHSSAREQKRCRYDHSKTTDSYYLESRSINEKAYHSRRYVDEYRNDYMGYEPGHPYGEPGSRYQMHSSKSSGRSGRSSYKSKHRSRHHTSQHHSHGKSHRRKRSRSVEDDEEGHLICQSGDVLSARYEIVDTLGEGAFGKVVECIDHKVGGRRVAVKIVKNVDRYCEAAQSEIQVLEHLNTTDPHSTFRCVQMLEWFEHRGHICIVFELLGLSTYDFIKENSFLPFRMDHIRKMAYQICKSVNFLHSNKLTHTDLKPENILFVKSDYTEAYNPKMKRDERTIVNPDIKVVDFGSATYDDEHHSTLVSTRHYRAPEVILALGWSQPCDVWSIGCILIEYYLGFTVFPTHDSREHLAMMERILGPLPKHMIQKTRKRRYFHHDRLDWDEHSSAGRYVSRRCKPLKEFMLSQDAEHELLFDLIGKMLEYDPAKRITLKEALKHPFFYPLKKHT
Sequence of Hs_CDK5/p25 (Q00535 whole entry): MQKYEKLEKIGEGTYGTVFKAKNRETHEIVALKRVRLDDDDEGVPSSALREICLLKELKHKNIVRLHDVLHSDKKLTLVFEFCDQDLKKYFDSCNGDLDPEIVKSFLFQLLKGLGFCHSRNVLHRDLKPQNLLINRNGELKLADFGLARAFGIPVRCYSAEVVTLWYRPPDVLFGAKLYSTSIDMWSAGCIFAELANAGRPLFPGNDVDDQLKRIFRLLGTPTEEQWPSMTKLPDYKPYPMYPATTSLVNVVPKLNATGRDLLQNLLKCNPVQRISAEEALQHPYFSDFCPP
Sequence of Hs_CDK5/p25 (Q15078 99-307 partner limits assumed): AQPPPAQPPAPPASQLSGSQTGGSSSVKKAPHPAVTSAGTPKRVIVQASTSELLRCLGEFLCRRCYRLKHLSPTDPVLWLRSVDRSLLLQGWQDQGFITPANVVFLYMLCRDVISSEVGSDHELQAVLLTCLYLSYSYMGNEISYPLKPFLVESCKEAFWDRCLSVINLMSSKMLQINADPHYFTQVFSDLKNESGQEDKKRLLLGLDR
Sequence of Mm_CLK4 (O35493 whole entry): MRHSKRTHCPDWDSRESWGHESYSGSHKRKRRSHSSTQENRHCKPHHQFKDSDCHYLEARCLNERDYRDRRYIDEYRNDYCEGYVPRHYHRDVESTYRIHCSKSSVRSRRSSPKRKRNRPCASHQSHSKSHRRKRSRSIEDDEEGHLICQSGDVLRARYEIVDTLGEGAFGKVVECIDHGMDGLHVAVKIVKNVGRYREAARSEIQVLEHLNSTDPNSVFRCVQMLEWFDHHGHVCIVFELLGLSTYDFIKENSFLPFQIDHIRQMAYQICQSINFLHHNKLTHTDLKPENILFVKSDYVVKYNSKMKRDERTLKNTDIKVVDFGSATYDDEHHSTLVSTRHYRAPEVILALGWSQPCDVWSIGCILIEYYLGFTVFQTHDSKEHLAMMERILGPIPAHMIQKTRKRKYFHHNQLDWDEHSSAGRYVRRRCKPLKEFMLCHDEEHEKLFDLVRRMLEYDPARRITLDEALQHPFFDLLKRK
Sequence of Mm_CLK3 (O35492 whole entry): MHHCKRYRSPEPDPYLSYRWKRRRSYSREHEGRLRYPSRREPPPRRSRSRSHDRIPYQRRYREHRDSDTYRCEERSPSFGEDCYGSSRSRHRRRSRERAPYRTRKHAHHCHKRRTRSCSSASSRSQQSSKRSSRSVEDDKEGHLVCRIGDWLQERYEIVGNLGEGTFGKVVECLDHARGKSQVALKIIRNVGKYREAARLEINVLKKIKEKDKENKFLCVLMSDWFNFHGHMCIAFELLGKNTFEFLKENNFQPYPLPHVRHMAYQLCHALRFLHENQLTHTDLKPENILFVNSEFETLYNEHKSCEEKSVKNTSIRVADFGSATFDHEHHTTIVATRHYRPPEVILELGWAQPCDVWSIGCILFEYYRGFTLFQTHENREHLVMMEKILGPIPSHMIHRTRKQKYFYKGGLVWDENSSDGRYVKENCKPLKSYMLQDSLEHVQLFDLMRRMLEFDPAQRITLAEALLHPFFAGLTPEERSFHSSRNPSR
Sequence of Hs_PIM1 (P11309 whole entry): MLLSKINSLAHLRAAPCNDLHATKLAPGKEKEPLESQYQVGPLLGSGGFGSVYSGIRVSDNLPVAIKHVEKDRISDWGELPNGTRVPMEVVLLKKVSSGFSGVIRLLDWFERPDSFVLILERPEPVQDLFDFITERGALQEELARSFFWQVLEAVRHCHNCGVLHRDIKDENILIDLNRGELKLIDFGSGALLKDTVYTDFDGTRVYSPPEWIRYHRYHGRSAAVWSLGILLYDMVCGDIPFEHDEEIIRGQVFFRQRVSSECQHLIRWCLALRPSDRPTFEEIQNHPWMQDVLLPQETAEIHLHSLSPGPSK
Sequence of Hs_CK1ε (P49674 whole entry): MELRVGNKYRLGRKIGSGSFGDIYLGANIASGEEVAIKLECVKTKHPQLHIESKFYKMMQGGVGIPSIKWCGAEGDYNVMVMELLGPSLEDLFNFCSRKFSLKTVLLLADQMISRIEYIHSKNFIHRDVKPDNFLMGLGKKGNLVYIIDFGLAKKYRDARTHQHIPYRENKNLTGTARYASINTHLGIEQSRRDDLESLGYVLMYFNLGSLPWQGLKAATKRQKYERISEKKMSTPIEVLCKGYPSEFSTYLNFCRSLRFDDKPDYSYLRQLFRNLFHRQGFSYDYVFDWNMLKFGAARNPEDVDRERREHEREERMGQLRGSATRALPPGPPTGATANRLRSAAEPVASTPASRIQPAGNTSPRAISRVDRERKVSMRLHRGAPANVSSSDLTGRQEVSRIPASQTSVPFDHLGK
Sequence of Hs_CDK9/CyclinT (P50750 whole entry): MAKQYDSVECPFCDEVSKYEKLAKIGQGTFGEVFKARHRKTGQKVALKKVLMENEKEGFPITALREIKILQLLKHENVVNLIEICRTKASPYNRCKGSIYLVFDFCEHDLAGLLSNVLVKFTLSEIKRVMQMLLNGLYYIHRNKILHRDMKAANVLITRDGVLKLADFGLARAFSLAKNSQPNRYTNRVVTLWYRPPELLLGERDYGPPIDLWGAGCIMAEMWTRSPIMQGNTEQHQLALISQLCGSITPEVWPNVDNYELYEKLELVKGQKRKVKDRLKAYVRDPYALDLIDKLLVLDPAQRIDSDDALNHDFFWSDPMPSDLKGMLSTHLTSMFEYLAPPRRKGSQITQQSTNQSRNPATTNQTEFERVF
Sequence of Hs_CDK9/CyclinT (O60563 whole entry partner): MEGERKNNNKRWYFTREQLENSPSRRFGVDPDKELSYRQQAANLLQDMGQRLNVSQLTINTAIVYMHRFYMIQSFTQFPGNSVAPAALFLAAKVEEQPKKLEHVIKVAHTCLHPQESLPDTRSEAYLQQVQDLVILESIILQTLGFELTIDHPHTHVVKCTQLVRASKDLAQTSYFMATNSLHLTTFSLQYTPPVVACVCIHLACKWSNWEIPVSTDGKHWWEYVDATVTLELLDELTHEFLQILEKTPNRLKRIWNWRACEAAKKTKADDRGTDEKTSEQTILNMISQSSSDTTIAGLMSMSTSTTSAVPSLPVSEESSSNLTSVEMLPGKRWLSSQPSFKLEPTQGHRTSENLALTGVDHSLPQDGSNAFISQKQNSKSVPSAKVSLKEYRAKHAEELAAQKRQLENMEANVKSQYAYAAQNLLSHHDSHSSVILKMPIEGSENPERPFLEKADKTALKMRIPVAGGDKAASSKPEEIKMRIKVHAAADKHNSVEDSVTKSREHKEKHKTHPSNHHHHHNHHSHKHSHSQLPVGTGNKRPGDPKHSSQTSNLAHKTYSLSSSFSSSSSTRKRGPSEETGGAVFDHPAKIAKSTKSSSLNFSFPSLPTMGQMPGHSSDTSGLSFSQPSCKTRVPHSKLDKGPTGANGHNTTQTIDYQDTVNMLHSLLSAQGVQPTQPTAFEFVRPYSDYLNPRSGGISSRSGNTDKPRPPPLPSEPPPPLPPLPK
Sequence of Mm_CLK2 (O35491 whole entry): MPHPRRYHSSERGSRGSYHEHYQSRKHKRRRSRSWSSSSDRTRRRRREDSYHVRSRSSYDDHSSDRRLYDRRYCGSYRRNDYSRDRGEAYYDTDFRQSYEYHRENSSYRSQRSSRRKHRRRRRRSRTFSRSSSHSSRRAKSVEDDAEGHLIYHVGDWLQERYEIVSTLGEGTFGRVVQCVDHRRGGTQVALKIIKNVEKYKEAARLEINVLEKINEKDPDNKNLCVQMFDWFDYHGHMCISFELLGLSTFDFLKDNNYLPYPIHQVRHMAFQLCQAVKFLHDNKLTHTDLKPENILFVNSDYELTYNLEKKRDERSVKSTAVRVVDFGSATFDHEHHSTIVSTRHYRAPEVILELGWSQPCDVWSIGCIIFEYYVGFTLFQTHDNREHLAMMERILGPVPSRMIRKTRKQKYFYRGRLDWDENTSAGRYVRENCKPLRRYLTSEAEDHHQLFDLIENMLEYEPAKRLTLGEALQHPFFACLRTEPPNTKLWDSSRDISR
Sequence of Hs_GSK3β (P49841 whole entry): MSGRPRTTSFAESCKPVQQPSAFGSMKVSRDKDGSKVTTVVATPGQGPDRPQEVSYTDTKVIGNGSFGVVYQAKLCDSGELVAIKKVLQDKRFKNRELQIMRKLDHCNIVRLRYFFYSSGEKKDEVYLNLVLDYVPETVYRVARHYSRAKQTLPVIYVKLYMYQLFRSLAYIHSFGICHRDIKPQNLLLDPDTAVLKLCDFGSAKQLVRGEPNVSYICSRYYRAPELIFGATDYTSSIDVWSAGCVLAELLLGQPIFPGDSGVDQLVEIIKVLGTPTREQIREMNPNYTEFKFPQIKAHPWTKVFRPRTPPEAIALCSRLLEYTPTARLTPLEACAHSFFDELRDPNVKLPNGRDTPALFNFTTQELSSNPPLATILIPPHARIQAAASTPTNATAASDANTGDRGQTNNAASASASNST

remaining activity at 1 µM (Hs_CDK5/p25) [%]	remaining activity at 10 µM (Hs_CDK5/p25) [%]	remaining activity at 1 µM (Hs_CDK9/CyclinT) [%]	remaining activity at 10 µM (Hs_CDK9/CyclinT) [%]	remaining activity at 1 µM (Hs_CK1ε) [%]	remaining activity at 10 µM (Hs_CK1ε) [%]	remaining activity at 1 µM (Hs_GSK3β) [%]	remaining activity at 10 µM (Hs_GSK3β) [%]	remaining activity at 1 µM (Hs_HASPIN) [%]	remaining activity at 10 µM (Hs_HASPIN) [%]	remaining activity at 1 µM (Hs_PIM1) [%]	remaining activity at 10 µM (Hs_PIM1) [%]	remaining activity at 1 µM (Mm_CLK1 [1]) [%]	remaining activity at 10 µM (Mm_CLK1 [1]) [%]	remaining activity at 1 µM (Rn_DYRK1A) [%]	remaining activity at 10 µM (Rn_DYRK1A) [%]	activity against CLK1 in primary screening (Mm_CLK1 [1])	IC50 (Mm_CLK1 [2]) [nM]	Mm_CLK3/Mm_CLK1 (Mm_CLK1 [2])	IC50 (Mm_CLK2) [nM]	SMILES	further results
																				O=C(O)c1ccc2c(c1)nc(Nc1cccc(Cl)c1)c1ccncc12 [CX-4945]	IC50 (CLK1): 3.3 nM; IC50 (CLK2): 2.9 nM; IC50 (CLK3): 67 nM; IC50 (CLK4): 23 nM; IC50 (DYRK1A): […]
70	84	98	95	78	95	70	53	95	≥ 100	≥ 100	90	66	58	≥ 100	≥ 100					COC(=O)c1ccc(-c2cccc(Nc3ncc4cccc(OCc5cn(-c6ccc(C)cc6[N+](=O)[O-])nn5)c4n3)c2)cc1 [Compound 9a]	
74	≥ 100	96	91	≥ 100	≥ 100	90	86	65	43	≥ 100	96	60	66	≥ 100	≥ 100					COC(=O)c1ccc(-c2cc(Cl)cc(Nc3ncc4cccc(OCc5cn(-c6ccc(C)cc6[N+](=O)[O-])nn5)c4n3)c2)cc1 [Compound 9b]	
61	70	84	38	93	84	82	32	93	92	80	≥ 100	15	0	≥ 100	84	significant activity against CLK1	891	4.18	844	Cc1ccc(-n2cc(COc3cccc4cnc(Nc5cccc(-c6ccc(C(=O)O)cc6)c5)nc34)nn2)c([N+](=O)[O-])c1 [Compound 10a]	Mm_CLK3/Mm_CLK2 (Mm_CLK2): 4.42; IC50 (Mm_CLK4): 762 nM; Mm_CLK3/Mm_CLK4 (Mm_CLK4): 4.90; IC50 (Mm_CLK3): 3700 nM and 3730 nM
53	43	99	66	≥ 100	92	92	56	85	92	84	≥ 100	38	8	82	94	significant activity against CLK1	213	4.04	118	Cc1ccc(-n2cc(COc3cccc4cnc(Nc5cc(Cl)cc(-c6ccc(C(=O)O)cc6)c5)nc34)nn2)c([N+](=O)[O-])c1 [Compound 10b]	Mm_CLK3/Mm_CLK2 (Mm_CLK2): 7.29; IC50 (Mm_CLK4): 145 nM; Mm_CLK3/Mm_CLK4 (Mm_CLK4): 5.94; IC50 (Mm_CLK3): 861 nM
85	92	94	83	≥ 100	≥ 100	97	62	47	39	90	98	54	48	≥ 100	≥ 100					COC(=O)c1cccc(-c2cc(Cl)cc(Nc3ncc4cccc(OCc5cn(-c6ccc(C)cc6[N+](=O)[O-])nn5)c4n3)c2)c1 [Compound 12b]	
62	9	83	24	≥ 100	≥ 100	95	26	79	63	68	≥ 100	44	5	92	60	significant activity against CLK1	680	2.43	278	Cc1ccc(-n2cc(COc3cccc4cnc(Nc5cccc(-c6cccc(C(=O)O)c6)c5)nc34)nn2)c([N+](=O)[O-])c1 [Compound 13a]	Mm_CLK3/Mm_CLK2 (Mm_CLK2): 5.95; IC50 (Mm_CLK4): 428 nM; Mm_CLK3/Mm_CLK4 (Mm_CLK4): 3.87; IC50 (Mm_CLK3): 1660 nM
